pIC50: −log10 of the molar value.

By pIC50 is commonly meant −log10 of the IC50, conventionally taken in molar units.

The first assay has as its target T1, Progesterone receptor (Homo sapiens, UniProt P06401).
T1 sequence (P06401 whole entry): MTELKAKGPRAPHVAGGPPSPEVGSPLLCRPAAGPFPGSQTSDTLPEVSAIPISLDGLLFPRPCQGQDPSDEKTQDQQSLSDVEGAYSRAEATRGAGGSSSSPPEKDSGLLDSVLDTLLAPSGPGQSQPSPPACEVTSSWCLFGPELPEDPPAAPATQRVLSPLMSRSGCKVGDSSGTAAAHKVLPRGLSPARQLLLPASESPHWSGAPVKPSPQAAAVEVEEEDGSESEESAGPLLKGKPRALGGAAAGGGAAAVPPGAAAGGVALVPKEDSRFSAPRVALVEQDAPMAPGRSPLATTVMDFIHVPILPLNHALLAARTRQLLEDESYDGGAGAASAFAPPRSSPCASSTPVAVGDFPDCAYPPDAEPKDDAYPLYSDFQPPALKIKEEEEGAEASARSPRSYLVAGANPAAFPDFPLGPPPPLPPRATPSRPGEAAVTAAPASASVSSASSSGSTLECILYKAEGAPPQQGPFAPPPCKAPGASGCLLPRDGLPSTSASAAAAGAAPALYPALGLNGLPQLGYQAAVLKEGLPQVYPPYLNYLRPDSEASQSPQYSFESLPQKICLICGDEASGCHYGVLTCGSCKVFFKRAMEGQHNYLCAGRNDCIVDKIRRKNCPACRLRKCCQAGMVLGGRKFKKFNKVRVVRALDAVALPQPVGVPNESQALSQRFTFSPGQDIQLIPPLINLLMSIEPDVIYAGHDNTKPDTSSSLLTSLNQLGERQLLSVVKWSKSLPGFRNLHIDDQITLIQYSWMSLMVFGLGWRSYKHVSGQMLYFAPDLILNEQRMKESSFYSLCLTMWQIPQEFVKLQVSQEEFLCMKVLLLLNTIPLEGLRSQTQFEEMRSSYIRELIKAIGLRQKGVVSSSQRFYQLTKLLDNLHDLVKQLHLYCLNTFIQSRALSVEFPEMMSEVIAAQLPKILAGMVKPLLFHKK
Nature of the assay: Antagonist activity at progesterone receptor in human T47D cells assessed as inhibition of progesterone-induced alkaline phosphatase activity after 48 hrs. The class given is functional, cell-based.
For `CC#C[C@]1(O)CC[C@H]2[C@@H]3CCC4=CC(=O)CCC4=C3[C@@H](c3ccc(N(C)C(=O)NCCCCCC(=O)O)cc3)C[C@@]21C`, the pIC50 was 7.14.

Turning to `CC#C[C@]1(O)CC[C@H]2[C@@H]3CCC4=CC(=O)CCC4=C3[C@@H](c3ccc(N(C)C(=O)NCCCCCC(=O)N[C@@H](CC(C)C)C(=O)O)cc3)C[C@@]21C`, the pIC50 is 7.14.

For `CC#C[C@]1(O)CC[C@H]2[C@@H]3CCC4=CC(=O)CCC4=C3[C@@H](c3ccc(N(C)CCCCCC(=O)OC)cc3)C[C@@]21C`, the pIC50 is 9.40.

On to `CC#C[C@]1(O)CC[C@H]2[C@@H]3CCC4=CC(=O)CCC4=C3[C@@H](c3ccc(N(C)CCCCCCCCCCC(=O)O)cc3)C[C@@]21C`, for which the pIC50 was 9.34.

With `CC#C[C@]1(O)CC[C@H]2[C@@H]3CCC4=CC(=O)CCC4=C3[C@@H](c3ccc(N(C)CCCCCC(=O)NCCCC)cc3)C[C@@]21C`, the pIC50 is 9.05.

As to `CC#C[C@]1(O)CC[C@H]2[C@@H]3CCC4=CC(=O)CCC4=C3[C@@H](c3ccc(N(C)CCC(=O)Nc4ccc(C(N)=O)c(O)c4)cc3)C[C@@]21C`, the pIC50 is 9.36.

In the case of `CC#C[C@]1(O)CC[C@H]2[C@@H]3CCC4=CC(=O)CCC4=C3[C@@H](c3ccc(N(C)C(=O)NCCCCCC(=O)N[C@@H](CC(C)C)C(=O)OC(C)(C)C)cc3)C[C@@]21C`, the pIC50 is 8.77.

Regarding `CC#C[C@]1(O)CC[C@H]2[C@@H]3CCC4=CC(=O)CCC4=C3[C@@H](c3ccc(N(C)CCCCCCCC(=O)OC)cc3)C[C@@]21C`, the pIC50 was 9.33.

Consider `CC#C[C@]1(O)CC[C@H]2[C@@H]3CCC4=CC(=O)CCC4=C3[C@@H](c3ccc(N(C)CCC(=O)OC)cc3)C[C@@]21C`, for which the pIC50 is 9.80.

For `CC#C[C@]1(O)CC[C@H]2[C@@H]3CCC4=CC(=O)CCC4=C3[C@@H](c3ccc(N(C)C(=O)CCCCC(=O)OC)cc3)C[C@@]21C`, the pIC50 is 8.74.

Regarding `CC#C[C@]1(O)CC[C@H]2[C@@H]3CCC4=CC(=O)CCC4=C3[C@@H](c3ccc(N(C)C(=S)NCCCC)cc3)C[C@@]21C`, the pIC50 was 9.14.

In the case of `CC#C[C@]1(O)CC[C@H]2[C@@H]3CCC4=CC(=O)CCC4=C3[C@@H](c3ccc(N(C)CCC)cc3)C[C@@]21C`, the pIC50 is 9.57.

In the case of `CC#C[C@]1(O)CC[C@H]2[C@@H]3CCC4=CC(=O)CCC4=C3[C@@H](c3ccc(N(C)C(=O)CCCCC)cc3)C[C@@]21C`, the pIC50 was 9.16.

For the compound `CC#C[C@]1(O)CC[C@H]2[C@@H]3CCC4=CC(=O)CCC4=C3[C@@H](c3ccc(N(C)C(=O)NCCCCCC(=O)OC)cc3)C[C@@]21C`, the pIC50 was 8.66.

Regarding `CC#C[C@]1(O)CC[C@H]2[C@@H]3CCC4=CC(=O)CCC4=C3[C@@H](c3ccc(N(C)CCCCCCO)cc3)C[C@@]21C`, the pIC50 is 10.22.

Take `CC#C[C@]1(O)CC[C@H]2[C@@H]3CCC4=CC(=O)CCC4=C3[C@@H](c3ccc(N(C)CCCCCCCCC)cc3)C[C@@]21C`: the pIC50 is 8.85.

Regarding `CC#C[C@]1(O)CC[C@H]2[C@@H]3CCC4=CC(=O)CCC4=C3[C@@H](c3ccc(O)cc3)C[C@@]21C`, the pIC50 is 8.89.

For the compound `CC#C[C@]1(O)CC[C@H]2[C@@H]3CCC4=CC(=O)CCC4=C3[C@@H](c3ccc(N(C)CCCCCC4OCCO4)cc3)C[C@@]21C`, the pIC50 was 9.77.

`CC#C[C@]1(O)CC[C@H]2[C@@H]3CCC4=CC(=O)CCC4=C3[C@@H](c3ccc(N(C)CCCCCCOC(=O)CCC(=O)O)cc3)C[C@@]21C`: the pIC50 was 9.60.

`CC#C[C@]1(O)CC[C@H]2[C@@H]3CCC4=CC(=O)CCC4=C3[C@@H](c3ccc(N(C)CCCCCCCCCCC(=O)OC)cc3)C[C@@]21C`: the pIC50 was 9.20.

For the compound `CC#C[C@]1(O)CC[C@H]2[C@@H]3CCC4=CC(=O)CCC4=C3[C@@H](c3ccc(N(C)CCCCCC=O)cc3)C[C@@]21C`, the pIC50 is 9.82.

On to `CC#C[C@]1(O)CC[C@H]2[C@@H]3CCC4=CC(=O)CCC4=C3[C@@H](c3ccc(N(C)CCC(=O)O)cc3)C[C@@]21C`, for which the pIC50 was 7.47.

With `CC#C[C@]1(O)CC[C@H]2[C@@H]3CCC4=CC(=O)CCC4=C3[C@@H](c3ccc(N(C)C(=O)CCCC(=O)OC)cc3)C[C@@]21C`, the pIC50 was 8.81.

As for `CC#C[C@]1(O)CC[C@H]2[C@@H]3CCC4=CC(=O)CCC4=C3[C@@H](c3ccc(N(C)CCCCCCCC(=O)O)cc3)C[C@@]21C`, the pIC50 was 9.57.

Take `CC#C[C@]1(O)CC[C@H]2[C@@H]3CCC4=CC(=O)CCC4=C3[C@@H](c3ccc(N(C)C(=S)Nc4ccc(Cl)cc4)cc3)C[C@@]21C`: the pIC50 is 9.80.

`CC#C[C@]1(O)CC[C@H]2[C@@H]3CCC4=CC(=O)CCC4=C3[C@@H](c3ccc(N(C)CCCCCCOC(=O)CCC(=O)OC)cc3)C[C@@]21C`: the pIC50 was 9.77.

As for `CC#C[C@]1(O)CC[C@H]2[C@@H]3CCC4=CC(=O)CCC4=C3[C@@H](c3ccc(N(C)CCCOC(=O)CCC(=O)O)cc3)C[C@@]21C`, the pIC50 was 8.68.

For the compound `CC#C[C@]1(O)CC[C@H]2[C@@H]3CCC4=CC(=O)CCC4=C3[C@@H](c3ccc(N(C)C(=O)NCCCC)cc3)C[C@@]21C`, the pIC50 is 9.10.

Take `CC#C[C@]1(O)CC[C@H]2[C@@H]3CCC4=CC(=O)CCC4=C3[C@@H](c3ccc(N(C)C(=O)CCCCC(=O)O)cc3)C[C@@]21C`: the pIC50 was 7.11.

For `CC#C[C@]1(O)CC[C@H]2[C@@H]3CCC4=CC(=O)CCC4=C3[C@@H](c3ccc(N(C)CCCCCC)cc3)C[C@@]21C`, the pIC50 is 9.18.

Regarding `CC#C[C@]1(O)CC[C@H]2[C@@H]3CCC4=CC(=O)CCC4=C3[C@@H](c3ccc(N(C)CCCCCC(N)=O)cc3)C[C@@]21C`, the pIC50 was 9.26.

As to `CC#C[C@]1(O)CC[C@H]2[C@@H]3CCC4=CC(=O)CCC4=C3[C@@H](c3ccc(N(C)C(=O)CCCC(=O)O)cc3)C[C@@]21C`, the pIC50 is 7.00.

As to `CC#C[C@]1(O)CC[C@H]2[C@@H]3CCC4=CC(=O)CCC4=C3[C@@H](c3ccc(OC)cc3)C[C@@]21C`, the pIC50 was 10.02.

Consider `CC#C[C@]1(O)CC[C@H]2[C@@H]3CCC4=CC(=O)CCC4=C3[C@@H](c3ccc(OCCCCCCCCCBr)cc3)C[C@@]21C`, for which the pIC50 is 9.00.

With `CC#C[C@]1(O)CC[C@H]2[C@@H]3CCC4=CC(=O)CCC4=C3[C@@H](c3ccc(N(C)CCCOC(=O)CCC(=O)OC)cc3)C[C@@]21C`, the pIC50 was 8.92.

Turning to `CC#C[C@]1(O)CC[C@H]2[C@@H]3CCC4=CC(=O)CCC4=C3[C@@H](c3ccc(N(C)CCCCCC(=O)O)cc3)C[C@@]21C`, the pIC50 is 9.36.

For the compound `CC#C[C@]1(O)CC[C@H]2[C@@H]3CCC4=CC(=O)CCC4=C3[C@@H](c3ccc(NC)cc3)C[C@@]21C` [DESMETHYLMIFEPRISTONE], the pIC50 is 9.77.

Turning to `CC#C[C@]1(O)CC[C@H]2[C@@H]3CCC4=CC(=O)CCC4=C3[C@@H](c3ccc(N(C)CCCOCc4ccc(C(N)=O)c(O)c4)cc3)C[C@@]21C`, the pIC50 is 9.34.

`CC#C[C@]1(O)CC[C@H]2[C@@H]3CCC4=CC(=O)CCC4=C3[C@@H](c3ccc(N(C)C(=O)Nc4ccc(Cl)cc4)cc3)C[C@@]21C`: the pIC50 is 9.57.

In the case of `CC#C[C@]1(O)CC[C@H]2[C@@H]3CCC4=CC(=O)CCC4=C3[C@@H](c3ccc(N(C)CCCO)cc3)C[C@@]21C`, the pIC50 is 9.92.

In another assay the target is T1, Progesterone receptor. Briefly: Antagonist activity at progesterone receptor in human T47D-C124 cells transfected with luciferase gene linked to MMTV promoter assessed as inhibition of progesterone-induced luciferase transactivation activity after 24 hrs. The assay is classed as functional, cell-based.
For `CC#C[C@]1(O)CC[C@H]2[C@@H]3CCC4=CC(=O)CCC4=C3[C@@H](c3ccc(N(C)CCC)cc3)C[C@@]21C`, the pIC50 is 10.60.

Consider `CC#C[C@]1(O)CC[C@H]2[C@@H]3CCC4=CC(=O)CCC4=C3[C@@H](c3ccc(N(C)CCCCCCO)cc3)C[C@@]21C`, for which the pIC50 was 10.15.

For `CC#C[C@]1(O)CC[C@H]2[C@@H]3CCC4=CC(=O)CCC4=C3[C@@H](c3ccc(N(C)CCCCCCCCC)cc3)C[C@@]21C`, the pIC50 is 9.42.

Consider `CC#C[C@]1(O)CC[C@H]2[C@@H]3CCC4=CC(=O)CCC4=C3[C@@H](c3ccc(N(C)CCCCCC4OCCO4)cc3)C[C@@]21C`, for which the pIC50 was 10.14.

As to `CC#C[C@]1(O)CC[C@H]2[C@@H]3CCC4=CC(=O)CCC4=C3[C@@H](c3ccc(N(C)CCCCCC)cc3)C[C@@]21C`, the pIC50 was 9.74.

Take `CC#C[C@]1(O)CC[C@H]2[C@@H]3CCC4=CC(=O)CCC4=C3[C@@H](c3ccc(NC)cc3)C[C@@]21C` [DESMETHYLMIFEPRISTONE]: the negative logarithm of the IC50 (pIC50) is 10.14.

For the compound `CC#C[C@]1(O)CC[C@H]2[C@@H]3CCC4=CC(=O)CCC4=C3[C@@H](c3ccc(N(C)CCCO)cc3)C[C@@]21C`, the pIC50 is 9.98.

The values above are taken from ChEMBL document CHEMBL1140902 (J Med Chem, 2009).
